# What was measured:
# [1] = tested on: Brassica napus; assay: Post-emergence herbicidal activity against Brassica napus (oilseed rape) assessed as growth inhibition at 1.5 ai kg/ha under green house conditions; format: functional
# [2] = tested on: Cucumis sativus; assay: Pre-emergence growth inhibition of Cucumis sativus (cucumber) under green house conditions; format: functional, organism-based
# [3] = tested on: Digitaria sanguinalis; assay: Post-emergence herbicidal activity against Digitaria sanguinalis (hairy crabgrass) assessed as growth inhibition at 1.5 ai kg/ha under green house conditions; format: functional
# [4] = tested on: Medicago sativa; assay: Post-emergence herbicidal activity against Medicago sativa (alfalfa) assessed as growth inhibition at 1.5 ai kg/ha under green house conditions; format: functional
# [5] = tested on: Amaranthus retroflexus; assay: Pre-emergence herbicidal activity against Amaranthus retroflexus assessed as growth inhibition at 1.5 ai kg/ha under green house conditions; format: functional
# [6] = tested on: Medicago sativa; assay: Pre-emergence herbicidal activity against Medicago sativa (alfalfa) assessed as growth inhibition at 1.5 ai kg/ha under green house conditions; format: functional
# [7] = tested on: Amaranthus retroflexus; assay: Post-emergence herbicidal activity against Amaranthus retroflexus assessed as growth inhibition at 1.5 ai kg/ha under green house conditions; format: functional
# [8] = tested on: Brassica napus; assay: Pre-emergence herbicidal activity against Brassica napus (oilseed rape) assessed as growth inhibition at 1.5 ai kg/ha under green house conditions; format: functional
# [9] = tested on: Digitaria sanguinalis; assay: Pre-emergence herbicidal activity against Digitaria sanguinalis (hairy crabgrass) assessed as growth inhibition at 1.5 ai kg/ha under green house conditions; format: functional
# [10] = tested on: Echinochloa crus-galli; assay: Pre-emergence herbicidal activity against Echinochloa crus-galli (barnyard grass) assessed as growth inhibition at 1.5 ai kg/ha under green house conditions; format: functional
# [11] = tested on: Echinochloa crus-galli; assay: Post-emergence herbicidal activity against Echinochloa crus-galli (barnyard grass) assessed as growth inhibition at 1.5 ai kg/ha under green house conditions; format: functional
Compound,growth inhibition (GI) [1] [%],IC50 [2] [µg/g],growth inhibition (GI) [3] [%],growth inhibition (GI) [4] [%],growth inhibition (GI) [5] [%],growth inhibition (GI) [6] [%],growth inhibition (GI) [7] [%],growth inhibition (GI) [8] [%],growth inhibition (GI) [9] [%],growth inhibition (GI) [10] [%],growth inhibition (GI) [11] [%]
COP(=O)(OC)C(C)OC(=O)COc1cccc(Cl)c1Cl (stereo unspecified),23.3,74.11,35.5,0,16.7,8.3,43.8,0,0,19.1,13.6
COP(=O)(OC)C(C)OC(=O)COc1cccc(F)c1 (stereo unspecified),0,111.13,22.7,0,0,0,0,0,0,4.4,17.8
COP(=O)(OC)C(C)OC(=O)COc1ccc(F)cc1F (stereo unspecified),61,0.59,48.5,49.4,38.9,52.1,77.5,39.3,73.6,36,20.2
COP(=O)(OC)C(C)OC(=O)COc1cc(F)cc(F)c1 (stereo unspecified),0,93.5,27.2,0,0,10.4,14.9,0,0,0,3.8
COP(=O)(OC)C(OC(=O)COc1cccc(C(F)(F)F)c1)c1ccc(C)cc1 (stereo unspecified),14.2,4.04,0,91.2,100,100,96.2,50.4,95.7,80.4,23.6
COP(=O)(OC)C(OC(=O)COc1cccc(C(F)(F)F)c1)c1ccccc1Cl (stereo unspecified),54.6,3.57,36,100,100,100,100,61,97.9,54,23.5
COP(=O)(OC)C(OC(=O)COc1cccc(C(F)(F)F)c1)c1ccc(Cl)cc1 (stereo unspecified),57.4,3.16,12,100,100,89.8,88.5,38.6,91.5,84.2,0
COP(=O)(OC)C(OC(=O)COc1ccc([N+](=O)[O-])cc1)c1ccccc1 (stereo unspecified),5.49,223,-5.2,,,,,-2.78,0,0.8,0
COP(=O)(OC)C(C)OC(=O)COc1ccccc1 (stereo unspecified),21,89.1,0,9.4,0,27.2,5,7.1,0,0,12
CCOP(=O)(OCC)C(OC(=O)COc1cccc(C(F)(F)F)c1)c1ccc2c(c1)OCO2 (stereo unspecified),61.7,5.91,24,100,95.5,93.2,88.5,12.6,100,80.4,0

# Reference: ChEMBL document CHEMBL3044810, “Synthesis and herbicidal activity of alkyl 1-(3-trifluoromethylphenoxyacetoxy)-1-substituted methylphosphonates” (J Pestic Sci, 2007)
